Results on one molecule are retold here after patent publication US20220325122A1, “Ink Set And Recording Method” (Seiko Epson Corporation, priority 2021, published 2022).

The conditions of the data set: water at 20° C.; stated in words.

As for `COCCOC` [ethylene glycol dimethyl ether], the miscibility with water result is “completely miscible with water”.
